Patent US20050216965A1, “Method of detecting and reducing boar taint” (UNIVERSITY OF GUELPH, priority 1998, published 2005)
Structures can show the parent of a compound that is named as a salt. Values belong to the compound of their own block, whether it stands above or below them.

Experiments:
[1] = test system: cytochrome P450
Description: The metabolism of skatole was assayed in a medium containing 50 mM Tris-HCL buffer, pH 7.4, 10 mM potassium phosphate, 0.1 mM EDTA, 20% glycerol, 0.01 mM skatole and 1 mg/mL microsomel protein in a total volume of 2 mL. The reactions were started by addition of NADH and NADPH to 1 mM final concentration of each after 3 min of preincubation at 37° C. After 30 min at 37° C., the reactions were terminated by addition of 2 mL of ice-cold 0.2 M ammonium acetate buffer, pH 5.0.
Those incubations with no inhibitor added were regarded as controls. The effect of different P450 inhibitors on skatole metabolism was evaluated under the same conditions by including different concentrations of P450 inhibitors into the medium before preincubation.
Each assay was performed in duplicate. […] After adding ammonium acetate buffer, 5 μL of 0.01 mg/mL indole-3-acetonitrile was added to the reaction mixture as an internal standard. The mixture was then passed through a solid phase extraction tC18 cartridge (Waters Co., Milford, Mass.) previously conditioned with 2 mL of methanol and then 2 mL of water. The column was washed with 1 mL of water and skatole metabolites were eluted with 2×0.5 mL of acetonitrile. The acetonitrile was removed under a gentle stream of nitrogen at 40° C. and the metabolites were resuspended in 200 μl of acetonitrile for HPLC analysis. The HPLC equipment included a Spectra-Physics (San Jose, Calif., USA) SP8800 pump, SP8800 autosampler and SP4290 integrator, and a Phenomenex (Torrance, Calif., USA) Prodigy ODS-2 C18, 250×4.6 mm, 5 μm column. […] Injection volume was 100 μl.
For the purpose of the analysis, peak areas of the metabolites in control incubations were considered as 100%. Peak areas of the metabolites in the incubations with inhibitors were transformed to values of those for controls. The statistical model included the effect of the concentration of inhibitor and the effect of animal.

[2] = test system: thermostable phenol sulfotransferase; assay: Sulfation of 5-OH-3MI by liver cytosol with phenolsulfotransferase inhibitors (Trial III); assay type: biochemical; conditions: pig liver cytosol, 0.01 mM 5-OH-3MI, 1 mM PAPS, 10 min
Description: Trial III. The assay of 5-OH-3MI sulfation in Trial III utilized 1 mg cytosolic protein incubated with 0.01 mM 5-OH-3MI and 1 mM PAPS in 0.05M Tris/HCl pH 7.4 buffer containing 5 mM MgC12 in a total volume of 250 μl. The incubations were carried out in a shaking water bath at 37° C. for 10 min and the reaction was stopped with 250 μL ice-cold acetonitrile. After the addition of acetonitrile, the mixture was vortexed and centrifuged at 4,000 g for 15 min. A 400 μL aliquot of the clear supernatant was diluted with 400 μL water and 100 μL of the mixture was analyzed immediately by high-performance liquid chromatography (HPLC) as described below. Conjugates were identified based on the following criteria: (1) no peaks corresponding to conjugates appeared when cytosol and/or PAPS were excluded from the incubations; (2) no peaks corresponding to conjugates appeared when boiled cytosol was used, and (3) the peaks corresponding to the conjugates disappeared after addition of 10 μl of type H-2 sulfatase to the incubation mixture and further incubation for 3 h at 37° C. in a shaking water bath. Sulfation activity was measured as the formation of sulfoconjugate per minute per mg of cytosolic protein.
The effects of the phenolsulfotransferase inhibitors PCP and DCNP on the sulfation of 5-OH-3MI were determined by including different final concentrations of PCP or DCNP (0.001, 0.01, 0.1, 1, 10, 100 μM) in the assays. PCP was dissolved in methanol (final assay concentration 1%, v/v) and control incubations for PCP inihibition studies contained 1% methanol. DCNP was dissolved in incubation buffer.
Trial III. 5-OH-skatole and its sulfate conjugate were separated using a previously reported binary gradient system method (Hernandez et al., 1991) with a reverse-phase Prodigy ODS, 5 μm, 250×4.6 mm column (Phenomenex, Torrance, Calif., USA). The mobile phase consisted of 0.05M ammonium acetate buffer pH 5.0, at a flow rate of 1.2 ml/min. A 25-min linear gradient from 10 to 60% acetonitrile was used, with initiation of the gradient 2 min after sample injection. 5-OH-skatole and its conjugate were determined by their fluorescence (excitation wavelength of 285 nm, emission wavelength of 350 nm). Typical retention times for 5-OH-skatole and its conjugate were 18.5 and 13.4 min, respectively.

[3] = target: CYP2E1 (Sus scrofa, UniProt P79383); conditions: uncastrated Yorkshire male pigs; 0.5 g/kg BW daily by gavage, day 14 to day 50; after day 27; P<0.05
Description: Eight uncastrated Yorkshire male pigs were utilized in the study. Four males were assigned to the control group while the remaining four were treated with 0.5 g/kg BW of ethanol daily by gavage. Ethanol is a well-established inducer of CYP2E1. Treatment began at day 14 and continued until day 50. Blood samples were collected weekly and plasma skatole levels were measured by HPLC.

[4] = test system: glucuronyl transferase; assay: Conjugation of microsomal skatole metabolites with glucuronic acid (Trial II-c); assay type: in vitro ADME; conditions: pig liver microsomes, 1 mM UDP-GA, 30 min
Description: (§1) Trial II. For evaluation of skatole metabolite production (Trial II-a, n=22), 1 mg/ml of liver microsomes were incubated in Buffer 1,1 mM NADPH, 1 mM NADH, and 0.01 mM skatole in a total volume of 2 ml for 30 min at 37° C. as previously described (Babol et al., 1997). To determine which microsomal skatole metabolites are conjugated with sulfate (Trial II-b, n=3), the reaction mixture was first incubated for 30 min as in Trial II-a. PAPS was then added to 1 mM final concentration and the incubation continued for 30, 60 and 90 min. Control incubations were performed for the same period of time with no PAPS added. Assays to evaluate the conjugation of skatole metabolites with glucuronic acid (Trial II-c, n=3) were conducted in a similar way by adding 1 mM of UDP-GA after 30 min of initial incubation and continuing the incubation for a further 7.5, 15 and 30 min. […]
(§2) Trial II. […] The metabolites were separated with RP C18 column and detected by measuring UV absorbance at 250 nm and fluorescence with excitation and emission wavelengths set at 285 and 340 nm.
(§3) Trial II. The effect of time of incubation of skatole metabolites with PAPS (Trial I1-b) and UDPGA (Trial I1-c) on the concentrations of the metabolites was analyzed using untransformed values with the GLM procedure. […] The differences in the metabolic activities among the groups were analyzed with the GLM procedure.

[5] = test system: sulfotransferase; assay: Conjugation of microsomal skatole metabolites with sulfate (Trial II-b); assay type: in vitro ADME; conditions: pig liver microsomes, 1 mM PAPS, 90 min
Description: as §1, §2, §3

Chain of CYP2E1 (P79383 whole entry): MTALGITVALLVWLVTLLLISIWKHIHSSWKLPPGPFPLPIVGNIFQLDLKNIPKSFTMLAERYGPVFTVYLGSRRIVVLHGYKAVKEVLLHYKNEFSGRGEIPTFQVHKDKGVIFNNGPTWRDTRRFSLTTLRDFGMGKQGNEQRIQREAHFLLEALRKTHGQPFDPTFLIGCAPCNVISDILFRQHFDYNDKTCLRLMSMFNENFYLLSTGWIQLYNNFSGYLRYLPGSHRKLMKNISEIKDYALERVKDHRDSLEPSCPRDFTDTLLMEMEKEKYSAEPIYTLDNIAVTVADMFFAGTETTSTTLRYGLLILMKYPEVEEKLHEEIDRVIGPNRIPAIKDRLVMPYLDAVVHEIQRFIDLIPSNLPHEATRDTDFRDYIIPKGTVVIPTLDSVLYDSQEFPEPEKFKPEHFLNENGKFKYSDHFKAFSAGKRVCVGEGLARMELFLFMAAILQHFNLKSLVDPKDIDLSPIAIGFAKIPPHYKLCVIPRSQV

Structure (SMILES): C=CCSCC=C [DAS, diallyl sulfide]
Formation of all the other skatole metabolites, except for F-1 [1]: inhibited
Skatole disappearance, effect in words [1]: reduced

Structure (SMILES): O=[N+]([O-])c1cc(Cl)c(O)c(Cl)c1 [DCNP, 2,6-dichloro-4-nitrophenol]
5-sulfatoxyskatole production, % of the control ([2]; inhibitor 10 μM): 13.8%
5-sulfatoxyskatole production, % of the control ([2]; inhibitor 100 μM): 7.1%

Structure (SMILES): Oc1c(Cl)c(Cl)c(Cl)c(Cl)c1Cl [PCP, Pentachlorophenol]
5-sulfatoxyskatole production, % of the control ([2]; inhibitor 10 μM): 35.3%
5-sulfatoxyskatole production, % of the control ([2]; inhibitor 100 μM): 8%

Structure (SMILES): Cc1c[nH]c2cc(O)ccc12 [pro-MII, 6-Hydroxy-3-methylindole]
Concentration in incubation with UDPGA, % of control incubations [4]: 20%
Concentration in incubation with PAPS, % of control [5]: 40%

Other lines, results leading:

Amount of skatole remaining in the reaction mixture after incubation versus control [1]: not affected
Formation of F-2, effect in words [1]: reduced
Formation of F-3, effect in words [1]: reduced
Formation of UV-3, effect in words [1]: reduced
Structure (SMILES): CCCC(C(=O)OCCN(CC)CC)(c1ccccc1)c1ccccc1 [SKF 525A, SKF 525A hydrochloride (Proadifen)]

Plasma skatole levels versus control group [3]: significantly lower
Structure (SMILES): CCO [ethanol]

Amount of skatole remaining in the reaction mixture after incubation versus control [1]: higher
Formation of UV-3, effect in words [1]: reduced
Structure (SMILES): CC(C)(C(=O)c1cccnc1)c1cccnc1 [metyrapone]

Concentration in incubation with UDPGA, % of control incubations [4]: 126.1%
Structure (SMILES): Cc1c[nH]c2ccccc12 [skatole, 3-methylindole]
